Common to all, as to assay type: functional, Homo sapiens
Common to all, as to settings: Homo sapiens, Concentration 10 uM; read-out: Cell Viability

Test [1] concerns Colon cancer organoid. Description: Targeting of F14 CAF-induced therapy resistance in O23 CRC organoid-stroma co-culture. Cell viability is reported without Gefitinib.
The subject of test [2] is Colon cancer organoid. Description: Targeting of F14 CAF-induced therapy resistance in O14 CRC organoid-stroma co-culture. Cell viability is reported with Gefitinib.
Test [3] relates to Colon cancer organoid. Description: Targeting of F14 CAF-induced therapy resistance in O14 CRC organoid-stroma co-culture. Cell viability is reported without Gefitinib.
Test [4] deals with Colon cancer organoid. Description: Targeting of F14 CAF-induced therapy resistance in O23 CRC organoid-stroma co-culture. Cell viability is reported with SN-38.
Test [5] deals with Colon cancer organoid. Kind of test: Targeting of F14 CAF-induced therapy resistance in O23 CRC organoid-stroma co-culture. Cell viability is reported with Gefitinib.

On to `CN(C)[C@H]1CCN(c2cc(-c3ccccc3)nc3ccnn23)C1` [(S)-ZINC-3573], for which the viability at 10 µM is 98.9% in test [1]; 33.4% in test [2]; 68.9% in test [3]; 49.3% in test [4]; 55.6% in test [5].
Taken in the same sequence, the figures for `CCOc1ccc(S(=O)(=O)Nc2ccc(Cl)cc2C#Cc2cnc(C(=O)O)cc2OC)c2ncccc12` were 95.3%, 42.8%, 102%, 77.6% and 46.2%.
Turning to `Cc1sc2c(c1C)C(c1ccc(Cl)cc1)=N[C@@H](CC(=O)OC(C)(C)C)c1nnc(C)n1-2`, the viability at 10 µM in test [1] worked out at 65.2%; in test [2], 6.17%; in test [3], 25.8%; in test [4], 53.4%; in test [5], 35.6%.
For `Cn1cc(CNCC2CCN(c3ncc(C(=O)NO)cn3)CC2)c2ccccc21` [QUISINOSTAT], in that order: 11.7%, 0.22%, 0.685%, 1.67% and 6.71%.
Taken in the same sequence, the figures for `C[C@@]1(Cc2ccc(C#N)cc2)C(=O)N(c2cc(Cl)cc(Cl)c2)c2ncc(C(=O)NC3(c4nc(C5CCC5)no4)CC3)n21` [BI 9446] were 80.2%, 23%, 80.5%, 66.3% and 43%.
For the compound `Cc1c(N2CCCC2)nc2ccc(Br)cc2c1C(=O)NC[C@H](CCC(=O)O)c1ccccc1Cl` [BAY-6672], the viability at 10 µM in test [1] was determined as 81.2%; in test [2] it was 37.9%; in test [3], 138%; in test [4] it was 58.4%; in test [5], 42.2%.
Regarding `CN(C)C(=O)c1ccc(-c2cc(C(=O)N(C)C3CCCC3)no2)cc1O`, the viability at 10 µM in test [1] turned out to be 111%; in test [2], 52.8%; in test [3] it was 103%; in test [4], 76.4%; in test [5], 55.9%.
Taken in the same sequence, the figures for `O=c1nc(-c2ccccn2)sc2ccccc12` [BTZO-1] were 186%, 69.4%, 117%, 120% and 83.1%.
Consider `CC(=O)c1c(NS(C)(=O)=O)c2cc(-c3ccc(Cl)cc3)c(-c3ccc(Cl)cc3Cl)nc2n(C)c1=O` [MRL-CB1-NC], for which the viability at 10 µM is 92.4% in test [1]; 53.2% in test [2]; 148% in test [3]; 60.4% in test [4]; 48.2% in test [5].
For `Cc1ccc2[nH]c(CNCCCc3ccncc3)cc(=O)c2c1` [UCSF924NC], in that order: 95.8%, 33.3%, 127%, 52.3% and 37.3%.
For `CC(C)Oc1ccc(-c2c[nH]cc2CN(C)CCO)cc1`, in that order: 129%, 58.5%, 72%, 80.1% and 90.2%.
For `N#CC1(c2ccccn2)CCN(Cc2cc(C(=O)N3CCCC3)c(=O)n3ccccc23)CC1` [MSD-M1PAM-NC], in that order: 136%, 35.2%, 93.4%, 63.2% and 81.2%.
Regarding `Cc1c(C(=O)O)cc(-c2ccc(C3CCNCC3)cc2)c2ccc(-c3ccc(C(F)(F)F)cc3)cc12`, the viability at 10 µM came out at 143% in test [1]; 38.7% in test [2]; 64.2% in test [3]; 76.8% in test [4]; 48.3% in test [5].
Take `CCNC(=O)c1cc2c(-c3cc(C(C)(C)O)ccc3Oc3c(C)cc(F)cc3C)cn(C)c(=O)c2[nH]1` [ABBV-744]: the viability at 10 µM is 135% in test [1]; 14.3% in test [2]; 78.2% in test [3]; 75.1% in test [4]; 82% in test [5].
Taken in the same sequence, the figures for `c1ccc2oc(-c3csc(C4CCN(Cc5nc6ncccc6[nH]5)CC4)n3)cc2c1` were 159%, 37.9%, 94.5%, 60.8% and 66%.
Taken in the same sequence, the figures for `O=C1c2ccc(Nc3ccc(F)cc3F)cc2CCc2ccc(OC[C@H](O)CO)cc21` [Skepinone-L] were 143%, 56.2%, 153%, 77.4% and 72.8%.
Taken in the same sequence, the figures for `CCS(=O)(=O)c1cc2cc(C[C@](O)(CC(C)(C)c3ccc(F)cc3C(N)=O)C(F)(F)F)[nH]c2cn1` [BI 653048] were 161%, 42.7%, 100%, 110% and 68.4%.
As for `CN(C)C(=O)c1sc2nc(N3CCC(S(C)(=O)=O)CC3)cc(C(F)(F)F)c2c1N` [BI-5026], the viability at 10 µM in test [1] stood at 83.8%; in test [2], 51%; in test [3], 108%; in test [4] it was 79.7%; in test [5], 50%.
`O=C(N1CCS(=O)(=O)CC1)N1C[C@H](c2ccc(OC(F)(F)F)cc2)C[C@H](c2nc(C3CC3)no2)C1` [BAY-386]: the viability at 10 µM in test [1] turned out to be 120%; in test [2] it was 53.2%; in test [3], 103%; in test [4], 74.8%; in test [5] it was 55.9%.
Taken in the same sequence, the figures for `CN1CCN(c2ccnc(NCCc3ccccc3)n2)CC1` [TP-040n] were 177%, 66.3%, 192%, 89.4% and 100%.
Regarding `Cn1cc(-c2ccc3occ(-c4ccccc4-c4ccccc4)c3n2)cn1`, the viability at 10 µM in test [1] is 153%; in test [2], 75.6%; in test [3], 115%; in test [4], 63.4%; in test [5] it was 89.5%.
As for `N#CN1CC[C@H](C(=O)Nc2nc3c(s2)CN(C(=O)CN=[N+]=[N-])CC3)C1` [8RK64], the viability at 10 µM in test [1] is 108%; in test [2] it was 33.4%; in test [3], 105%; in test [4], 40.9%; in test [5] it was 43.1%.
`CC(C)(C#Cc1ccc(NC(=O)COc2ccccc2C(=O)c2ccccc2)c(Cl)c1)C(=O)O` [BI 2439]: the viability at 10 µM in test [1] was 160%; in test [2], 36.7%; in test [3], 159%; in test [4], 82.7%; in test [5], 98.3%.
For `C[C@H](NC(=O)c1cnc2n1[C@](C)(Cc1ccc(C#N)cc1)C(=O)N2c1cc(Cl)c(F)c(Cl)c1)C(=O)NC1(c2ccccn2)CC1` [BI 1950], in that order: 104%, 44.4%, 125%, 85.8% and 52.2%.
Turning to `CO[C@H]1CC[C@H](CNc2ccc(S(=O)(=O)NC(=O)c3ccc(N4CCN(CC5=C(c6ccc(Cl)cc6)CC(C)(C)CC5)CC4)cc3Oc3cnc4[nH]ccc4c3)cc2[N+](=O)[O-])CC1` [A-1211212], the viability at 10 µM was 83.3% in test [1]; 25% in test [2]; 40.4% in test [3]; 32.3% in test [4]; 30.6% in test [5].
Turning to `Cc1cc2c(-c3ccco3)cnc(N[C@H]3CCN(C)C[C@@H]3C(=O)NC3CCCCC3)c2[nH]c1=O` [GSK791], the viability at 10 µM amounted to 76% in test [1]; 26.2% in test [2]; 111% in test [3]; 81.3% in test [4]; 50% in test [5].
`CC(=O)c1cc(-c2cc(C(=O)NC3CC3)ccc2C)c2ncccn12`: the viability at 10 µM amounted to 108% in test [1]; 65.1% in test [2]; 83.8% in test [3]; 91.2% in test [4]; 71.5% in test [5].
For `Cc1ccccc1Oc1cc(-n2c(=O)cc(C(F)(F)F)[nH]c2=O)c2ccccc2c1Cl` [BAY-069], in that order: 116%, 40.6%, 167%, 51.3% and 56.6%.
Taken in the same sequence, the figures for `c1ccc(N2CCN(Cc3nc4ccccc4[nH]3)CC2)nc1` were 163%, 57.8%, 134%, 106% and 66.8%.
Take `COc1cc(-c2cn(C)c(=O)c3cnccc23)c(OC)cc1CN(C)C`: the viability at 10 µM in test [1] came out at 55.4%; in test [2], 53%; in test [3], 95.6%; in test [4], 44.2%; in test [5] it was 31.8%.
For `COc1cc(-c2cn([C@H]3CCc4ccccc4N(CC(F)(F)F)C3=O)nn2)ccc1-n1ccc(C)n1`, in that order: 81.1%, 41.1%, 113%, 48.6% and 38.9%.

These data come from ChEMBL document CHEMBL5608113, “Targeting of CAF-induced therapy resistance in CRC organoid-stroma co-cultures” (2024).
